Measurements: paper PMC11401813, “Grewiifopenes A–K, bioactive clerodane diterpenoids from Casearia grewiifolia Vent” (Natural Products and Bioprospecting, 2024)
In brackets after ≈: the same amount, converted by molar mass.

Tests used:
[1] = tested on: Bacillus cereus (ATCC 11778); assay: Antibacterial broth microdilution (MIC/MBC), B. cereus; assay type: cell-based; details: Bacillus cereus, ATCC11778
Protocol: (§1) In addition, the isolates were also evaluated for their antibacterial activity towards three strains including Bacillus cereus (ATCC 11778), Staphylococcus aureus (ATCC 6538) and Staphylococcus epidermidis (ATCC 12228) using penicillin G and gentamicin as the antibiotic controls (Table 5). […] Finally, the inhibitory activity of aromatase by using a CYP19 screening kit was investigated. The aromatase (also called estrogen synthase) is responsible for converting the non-aromatic ring A of androgens to estrogens, which are related to the proliferation of breast cancer cells.
(§2) The tested strains, Staphylococcus aureus (S. aureus) ATCC6538, Staphylococcus epidermidis (S. epidermidis) ATCC12228, and Bacillus cereus (B. cereus) ATCC11778 were obtained from the American Type Culture Collection (ATCC).
(§3) All tested species were grown on Mueller Hinton Agar (MHA) and incubated at 37 °C for 18–24 h. The bacterial colonies suspension in sterile normal saline was diluted until they reached a 1 × 10^6 CFC/mL concentration, which was then compared to the McFarland scale. This step provided a standard bacterial suspension (1 × 10^6 CFU/mL), which was used for the following assays.
(§4) The broth microdilution technique was used for the MIC and MBC determination, which was expressed according to Clinical and Laboratory Standards Institute (CLSI) standard M07 guideline. The compounds were prepared as a stock solution by dissolving in dimethyl sulfoxide (DMSO) with the concentration ranging from 0.195 to 200 µg/mL. DMSO and penicillin G or gentamicin were used as normal and standard drug control. […] Three replicates were performed for each experiment.

[2] = tested on: Staphylococcus aureus (ATCC 6538); assay: Antibacterial broth microdilution (MIC/MBC), S. aureus; assay type: cell-based; details: ATCC6538
Protocol: as §1, §2, §3, §4

[3] = tested on: MDA-MB-231 (triple negative breast cancer); assay: Cytotoxicity, MTT assay, MDA-MB-231; assay type: cell-based, human; details: Homo sapiens, MDA-MB-231, MDA-MB-231 cell line; MTT; mean ± s.d. (n = 3); read-out: IC50, MDA-MB-231
Protocol: (§5) The in vitro cytotoxicity assay toward a panel of human cancer cell lines of several clerodane diterpenoids has been well investigated. Thus, the isolates in adequate amounts were tested against MOLT-3 (acute lymphoblastic leukemia), HuCCA-1 (cholangiocarcinoma), HepG2 (hepatocellular carcinoma), A549 (lung adenocarcinoma), HeLa (cervical carcinoma), and MDA-MB-231 (triple negative breast cancer) cancer cell lines using the MTT and XTT methods. Doxorubicin and etoposide were used as positive controls.
(§6) The MTT (3-(4,5-dimethylthiazol-2-yl)-2,5-diphenyltetrazolium bromide) assay was employed for the cytotoxic evaluation against five human cancer cell lines, including HepG2, A549, MDA-MB-231, HeLa, and HuCCA-1, while the XTT (2,3-bis-(2-methoxy-4-nitro-5-sulphenyl)-(2H)-tetrazolium-5-carboxanilide) method was used for MOLT-3 cancer cell.

[4] = tested on: Staphylococcus epidermidis (ATCC 12228); assay: Antibacterial broth microdilution (MIC/MBC), S. epidermidis; assay type: cell-based; details: ATCC12228
Protocol: as §1, §2, §3, §4

[5] = tested on: A549 (lung adenocarcinoma); assay: Cytotoxicity, MTT assay, A549; assay type: cell-based, human; details: Homo sapiens, A549, A549 cell line, mean ± s.d. (n = 3)
Protocol: as §5, §6

[6] = tested on: HepG2 (hepatocellular carcinoma); assay: Cytotoxicity, MTT assay, HepG2; assay type: cell-based, human; details: Homo sapiens, HepG2, HepG2 cell line; MTT; mean ± s.d. (n = 3); read-out: IC50, HepG2
Protocol: as §5, §6

[7] = tested on: HeLa (cervical carcinoma); assay: Cytotoxicity, MTT assay, HeLa; assay type: cell-based, human; details: HeLa cell line, MTT, mean ± s.d. (n = 3); for IC50: Homo sapiens, HeLa, read-out: IC50, HeLa
Protocol: as §5, §6

[8] = tested on: MOLT-3 (acute lymphoblastic leukemia); assay: Cytotoxicity, XTT method, MOLT-3; assay type: cell-based; details: Homo sapiens; MOLT-3 cell line; XTT; mean ± s.d. (n = 3); read-out: IC50, MOLT-3
Protocol: as §5, §6

[9] = tested on: HuCCA-1 (cholangiocarcinoma); assay: Cytotoxicity, MTT assay, HuCCA-1; assay type: cell-based, human; details: Homo sapiens, HuCC-A1, HuCCA-1 cell line; MTT; mean ± s.d. (n = 3); read-out: IC50, HuCCA-1
Protocol: as §5, §6

aromatase (CYP19) = molecular target: T1, aromatase (CYP19) (Homo sapiens, UniProt P11511); assay: Aromatase (CYP19) inhibition assay; assay type: biochemical; details: for inhibition at 12.5 µM: at a concentration of 12.5 µM; for Aromatase inhibitory activity (in words): at the concentration up to 12.15 µM
T1 construct: purchased
T1 sequence (P11511 1-503): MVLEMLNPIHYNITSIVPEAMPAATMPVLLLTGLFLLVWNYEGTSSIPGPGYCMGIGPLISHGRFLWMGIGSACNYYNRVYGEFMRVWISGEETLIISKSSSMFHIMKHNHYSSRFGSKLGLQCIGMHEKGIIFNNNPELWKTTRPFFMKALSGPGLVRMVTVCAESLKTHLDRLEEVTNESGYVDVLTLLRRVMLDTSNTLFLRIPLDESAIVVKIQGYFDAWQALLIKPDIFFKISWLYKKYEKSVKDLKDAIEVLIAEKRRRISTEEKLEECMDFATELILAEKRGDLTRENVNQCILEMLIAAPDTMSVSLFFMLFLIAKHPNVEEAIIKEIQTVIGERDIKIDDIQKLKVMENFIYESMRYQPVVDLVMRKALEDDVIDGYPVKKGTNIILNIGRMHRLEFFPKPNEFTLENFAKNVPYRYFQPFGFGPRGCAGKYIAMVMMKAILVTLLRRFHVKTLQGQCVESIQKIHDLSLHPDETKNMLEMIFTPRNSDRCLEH
Protocol: as §1
The aromatase assay used a method previously designed by Stresser and co-workers.

Structure (SMILES) | MIC [1] | MIC [2] | MIC [4] | inhibition at 12.5 µM (aromatase (CYP19)) | Aromatase inhibitory activity (in words) (aromatase (CYP19)) | MBC [1] | MBC [2] | IC50 [3] | MBC [4] | IC50 [5] | IC50 [6] | IC50 [7] | IC50 [8] | IC50 [9] | IC50, HeLa [7]
C=CC(=C)CC[C@]1(C)[C@H](C)C[C@H](OC)[C@@]23C(=C[C@H](OC(=O)[C@@H](C)CC)C[C@@H]12)[C@@H](OC(C)=O)O[C@H]3OC(C)=O [Compound 5, corymbulosin N] |  |  |  | 18% | did not show activity |  |  | 8.7 ± 0.2 µM |  | 5 ± 0.9 µM | 10 ± 0.5 µM | 5.6 ± 0.3 µM | 3.4 ± 0.4 µM | 5.3 ± 0.1 µM | 
C=CC(=C)CC[C@]1(C)[C@H](C)C[C@H](OC)[C@@]23C(=C[C@H](OC(=O)C(C)C)C[C@@H]12)[C@@H](OC(C)=O)O[C@H]3OC(C)=O [Compound 6, corymbulosin K] |  |  |  |  |  |  |  | 10.2 ± 0.6 µM |  | 5.8 ± 0.8 µM | 11.8 ± 1.1 µM | 7.3 ± 0.3 µM | 3.2 ± 0.2 µM | 5.6 ± 1.2 µM | 
C=CC(=C)CCC1(C)C(C)C(OC(=O)C=Cc2ccc(O)cc2)C(O)C23C(=CC(OC(=O)CC(C)C)CC12)C(OC)OC3OC(C)=O (stereo not drawn) [Compound 13, Grewiifopene F] |  |  |  |  |  |  |  | 37 ± 5.1 µM |  | 30.6 ± 3.9 µM | 44.2 ± 4.4 µM |  | 3.7 ± 1 µM | 41.4 ± 6.1 µM | I^a (Inactive for cytotoxicity with < 50% inhibition at a concentration of 50 µg/mL)

Second part, led by results:

MIC [1] | MIC [2] | MIC [4] | inhibition at 12.5 µM (aromatase (CYP19)) | Aromatase inhibitory activity (in words) (aromatase (CYP19)) | Structure (SMILES) | MBC [1] | MBC [2] | IC50 [3] | MBC [4] | IC50 [5] | IC50 [6] | IC50 [7] | IC50 [8] | IC50 [9] | IC50, HeLa [7]
100 µg/mL (≈ 169 µM) | > 200 µg/mL | > 200 µg/mL |  |  | C=CC(=C)CC[C@]1(C)[C@H](C)[C@@H](OC(C)=O)[C@H](OC)[C@@]23C(=C[C@H](OC(=O)CC(C)C)C[C@@H]12)[C@@H](OC(C)=O)O[C@H]3OC(C)=O [Compound 2, Grewiifopene B] | > 200 µg/mL | > 200 µg/mL | 9.3 ± 0.4 µM | > 200 µg/mL | 7.8 ± 0.5 µM | 37.1 ± 4.1 µM | 8.8 ± 0.9 µM | 2.7 ± 0.4 µM | 8.7 ± 1.1 µM | 
> 200 µg/mL | > 200 µg/mL | > 200 µg/mL | 15% | did not show activity | C=CC(=C)CC[C@]1(C)[C@H](C)[C@@H](OC(C)=O)[C@H](OC(C)=O)[C@@]23C(=C[C@H](OC(=O)CC(C)C)C[C@@H]12)[C@@H](OC(C)=O)O[C@H]3OC(C)=O [Compound 3, Grewiifopene C] | > 200 µg/mL | > 200 µg/mL | 8.4 ± 0.1 µM | > 200 µg/mL | 5.1 ± 1.1 µM | 13.2 ± 0.5 µM | 5.3 ± 0.1 µM | 2.7 ± 0.3 µM | 3.9 ± 0.2 µM | 
12.5 µg/mL (≈ 24.8 µM) | > 200 µg/mL | > 200 µg/mL |  |  | C=CC(=C)CC[C@]1(C)[C@H](C)C[C@H](OC)[C@@]23C(=C[C@H](OC(=O)CC(C)C)C[C@@H]12)[C@@H](OC)O[C@H]3OC(C)=O [Compound 10, kurzipene A] | 12.5 µg/mL (≈ 24.8 µM) | > 200 µg/mL | 10.4 ± 0.2 µM | > 200 µg/mL | 8.2 ± 0.8 µM | 13 ± 1 µM | 10.7 ± 0.6 µM | 5 ± 1.4 µM | 7.5 ± 0.2 µM | 
 |  |  | 0% | did not show activity | C=CC(=C)CC[C@]1(C)[C@H](C)[C@@H](OC(=O)CC(C)C)[C@H](O)[C@@]23C(=C[C@H](OC(=O)CC(C)C)C[C@@H]12)[C@@H](OC(C)=O)O[C@H]3OC(C)=O [Compound 12, Grewiifopene E] |  |  | 7.6 ± 0.9 µM |  | 3.6 ± 0.04 µM | 8.9 ± 0.3 µM | 3.8 ± 0.6 µM | 1.7 ± 0.4 µM | 4.4 ± 0.4 µM | 
